# Data: article PMC5689459 (European journal of medicinal chemistry, 2010)
# Where two headings read alike, the source gives them in different places. Where a SMILES comes first, the peptide text is derived from it. [ ]: non-standard residue; d: D form. d(β3hP) = O=C(O)C[C@H]1CCCN1; β3hP = O=C(O)C[C@@H]1CCCN1
# Assays:
# [1] = target: T1, μ-opioid receptor (Homo sapiens, UniProt P35372); assay: Radioligand competition binding, displacement of [3H]DAMGO; conditions: for Selectivity Kiδ/Kiμ: ratio of δ and μ binding Ki
# [2] = target: κ-opioid receptor (Homo sapiens, UniProt P41145); assay: Radioligand competition binding, displacement of [3H]U69,593
# [3] = target: T2, δ-opioid receptor (Homo sapiens, UniProt P41143); assay: Radioligand competition binding, displacement of [3H]DPDPE
# [4] = target: δ-opioid receptors (MVD) (Mus musculus, UniProt P32300); assay: MVD in vitro tissue bioassay; assay type: biochemical
# [5] = target: μ-opioid receptors (GPI); assay: GPI/LMMP in vitro tissue bioassay; assay type: biochemical, guinea pig; conditions: read-out: Bioassay GPI (IC50); ± S.E.M.
# [6] = target: T2, δ-opioid receptor; conditions: read-out: Receptor affinity Kiδ; cited from earlier work
# [7] = target: T1, μ-opioid receptor; conditions: ratio of δ and μ binding Ki; cited from earlier work
compound,measurement,setting,value
"NC(=O)[C@H](Cc1ccccc1)NC(=O)[C@H](Cc1ccccc1)NC(=O)C[C@@H]1CCCN1C(=O)[C@@H](N)Cc1ccc(O)cc1 [Compound 6a, H–Tyr–(S)-HPro–Phe–Phe–NH2]",Ki,[1],0.058 ± 0.005 µM
same,Ki,[2],0.99 ± 0.012 µM
"NC(=O)[C@H](Cc1ccccc1)NC(=O)[C@H](Cc1ccccc1)NC(=O)C[C@H]1CCCN1C(=O)[C@@H](N)Cc1ccc(O)cc1 [Compound 6b, H–Tyr–(R)-HPro–Phe–Phe–NH2]",Ki,[3],> 10 µM
same,Ki,[1],0.293 ± 0.027 µM
same,Selectivity Kiδ/Kiμ,[1],> 34
same,Ki,[2],10 ± 1.2 µM
"NC(=O)[C@H](Cc1ccccc1)NC(=O)[C@H](Cc1ccccc1)NS(=O)(=O)C[C@@H]1CCCN1C(=O)[C@@H](N)Cc1ccc(O)cc1 [Compound 6c, H–Tyr–(S)-HPrs–Phe–Phe–NH2]",Ki,[1],0.1 ± 0.008 µM
same,Ki,[2],4.8 ± 0.367 µM
"NC(=O)[C@@H]1CCCN1C(=O)[C@H](Cc1ccccc1)NC(=O)C[C@@H]1CCCN1C(=O)[C@@H](N)Cc1ccc(O)cc1 [Compound 7a, H–Tyr–(S)-HPro–Phe–Pro–NH2] (H-Y[β3hP]FP-NH2)",Ki,[3],> 10 µM
same,Ki,[1],6.1 ± 0.553 µM
same,Ki,[2],4.4 ± 0.356 µM
same,"Bioassay MVD, % at 1 μM",[4],33.7% at 1 μM
same,IC50,[5],1.1 ± 0.115 µM
"NC(=O)[C@@H]1CCCN1C(=O)[C@H](Cc1ccccc1)NC(=O)C[C@H]1CCCN1C(=O)[C@@H](N)Cc1ccc(O)cc1 [Compound 7b, H–Tyr–(R)-HPro–Phe–Pro–NH2] (H-Y[d(β3hP)]FP-NH2)",Ki,[3],> 10 µM
same,Ki,[1],0.03 ± 0.004 µM
same,Selectivity Kiδ/Kiμ,[1],> 333
same,Ki,[2],10 ± 0.982 µM
same,IC50,[5],0.017 ± 0.003 µM
Tyr–Pro–Phe–Pro–NH2 (YPFP) [Morphyceptin],Ki,[6],> 10 µM
Tyr–Pro–Phe–Pro–NH2 [Morphyceptin],Selectivity Kiδ/Kiμ,[7],> 74.1
